Assay results from patent publication US20260028348A1, “MODULATORS OF TNF-ALPHA ACTIVITY” (Forward Therapeutics, Inc., priority 2023, published 2026).

System: HEK Blue™ TNFα reporter cells
Test: TNF-α Induced HEK Blue Cellular Assay
Assay type: cell-based
Conditions: TNF-α stimulated HEK Blue TNFα reporter cells, 24 hrs, secreted alkaline phosphatase (QUANTI-Blue, 620 nm)
Protocol: Test articles were diluted in DMSO and serially diluted into 384 well assay plate (Corning 3765), at final concentrations ranging from […] to 0.5 nM. HEK Blue™ TNFα reporter cells were added at a final density of 10,000 cell per well in assay media [DMEM (Gibco, cat #21063-029), 10% fetal bovine serum (ExcelBio, cat #FND500), 1% Penicillin-Streptomycin (Solarbio, cat #P1400-100]. TNF-α (R&D 210-TA-020/CF) was then added to the assay plate at a final concentration of […]. This plate was then incubated for 24 hrs at 37° C. and 5% CO2. Secreted alkaline phosphatase expression was then measured using QUANTI-Blue™(Invivogen), according to manufacturer instructions and read on an Envision microplate reader at 620 nm.
Inhibition data for test compound over a range of concentration was plotted as percentage inhibition of the test compound (100%=maximum inhibition). IC50 values were determined after correcting for background [(sample read-mean of low control)/(mean of high control-mean of low control)] whereby the low control is DMSO without stimulation and high control is DMSO with stimulation. The IC50 is defined as the concentration of test compound which produces […] and was quantified using the 4 parameter logistic equation to fit the data.

CN1C(=O)c2cccc(OC(F)F)c2[C@H]2C[C@@H]1c1nc3ccc(-c4cnc5c(c4)CC[C@@]5(C)O)cc3n12 (single isomer, unassigned) [Example 11]
IC50: < 100 nM

CN1C(=O)c2cccc(OC(F)F)c2[C@H]2C[C@@H]1c1nc3ccc(-c4cnc5c(c4)CC[C@]5(C)O)cc3n12 (single isomer, unassigned) [Example 12]
IC50: < 100 nM

CN1C(=O)c2cccc(OC(F)F)c2[C@H]2C[C@@H]1c1nc3ccc(-c4cnc5c(c4)CC[C@@H]5N)cc3n12 (single isomer, unassigned) [Example 16]
IC50: < 100 nM

CN1C(=O)c2cccc(OC(F)F)c2[C@H]2C[C@@H]1c1nc3ccc(-c4cnc5c(c4)CC[C@H]5N)cc3n12 (single isomer, unassigned) [Example 17]
IC50: < 100 nM

CN1C(=O)c2cccc(OC(F)F)c2[C@H]2C[C@@H]1c1nc3ccc(-c4cnc5c(c4)CC[C@@]5(C)N)cc3n12 (single isomer, unassigned) [Example 22]
IC50: < 100 nM

CN1C(=O)c2cccc(OC(F)F)c2[C@H]2C[C@@H]1c1nc3ccc(-c4cnc5c(c4)CC[C@]5(C)N)cc3n12 (single isomer, unassigned) [Example 23]
IC50: < 100 nM

[2H]C([2H])([2H])N1C(=O)c2cccc(OC(F)F)c2[C@H]2C[C@@H]1c1nc3cc(F)c(-c4cnc5c(c4)CC[C@]5(C)N)cc3n12 (single isomer, unassigned) [Example 25]
IC50: < 100 nM

[2H]C([2H])([2H])N1C(=O)c2cccc(OC(F)F)c2[C@H]2C[C@@H]1c1nc3cc(F)c(-c4cnc5c(c4)CC[C@@]5(C)N)cc3n12 (single isomer, unassigned) [Example 26]
IC50: < 100 nM

[2H]C([2H])([2H])N1C(=O)c2cccc(OC(F)F)c2[C@H]2C[C@@H]1c1nc3ccc(-c4cnc5c(c4)CC[C@]5(C)N)cc3n12 (single isomer, unassigned) [Example 28]
IC50: < 100 nM

[2H]C([2H])([2H])N1C(=O)c2cccc(OC(F)F)c2[C@H]2C[C@@H]1c1nc3ccc(-c4cnc5c(c4)CC[C@@]5(C)N)cc3n12 (single isomer, unassigned) [Example 29]
IC50: < 100 nM

[2H]C([2H])([2H])N1C(=O)c2cccc(OC(F)F)c2[C@H]2C[C@@H]1c1nc3ccc(-c4cnc5c(c4)CC[C@]5(C)O)cc3n12 (single isomer, unassigned) [Example 32]
IC50: < 100 nM

[2H]C([2H])([2H])N1C(=O)c2cccc(OC(F)F)c2[C@H]2C[C@@H]1c1nc3ccc(-c4cnc5c(c4)CC[C@@]5(C)O)cc3n12 (single isomer, unassigned) [Example 33]
IC50: < 100 nM

[2H]C([2H])([2H])N1C(=O)c2cccc(OC(F)F)c2[C@H]2C[C@@H]1c1nc3ccc(-c4cnc5c(c4)OCC[C@]5(C)O)cc3n12 (single isomer, unassigned) [Example 34]
IC50: < 100 nM

[2H]C([2H])([2H])N1C(=O)c2cccc(OC(F)F)c2[C@H]2C[C@@H]1c1nc3ccc(-c4cnc5c(c4)OCC[C@@]5(C)O)cc3n12 (single isomer, unassigned) [Example 35]
IC50: < 100 nM

CN1C(=O)c2cccc(OC(F)F)c2[C@H]2C[C@@H]1c1nc3ccc(-c4cnc5c(c4)CC[C@]5(N)CO)cc3n12 (single isomer, unassigned) [Example 36]
IC50: < 100 nM

CN1C(=O)c2cccc(OC(F)F)c2[C@H]2C[C@@H]1c1nc3ccc(-c4cnc5c(c4)CC[C@@]5(N)CO)cc3n12 (single isomer, unassigned) [Example 37]
IC50: < 100 nM

[2H]C([2H])([2H])N1C(=O)c2cccc(OC(F)F)c2[C@H]2C[C@@H]1c1nc3ccc(-c4cnc5c(c4)COC[C@]5(C)O)cc3n12 (single isomer, unassigned) [Example 38]
IC50: 10000 to 30000 nM

[2H]C([2H])([2H])N1C(=O)c2cccc(OC(F)F)c2[C@H]2C[C@@H]1c1nc3ccc(-c4cnc5c(c4)COC[C@@]5(C)O)cc3n12 (single isomer, unassigned) [Example 39]
IC50: 10000 to 30000 nM

[2H]C([2H])([2H])N1C(=O)c2cccc(OC(F)F)c2[C@H]2C[C@@H]1c1nc3ccc(-c4cnc5c(c4)COC[C@@]5(O)CC)cc3n12 (single isomer, unassigned) [Example 40]
IC50: 10000 to 30000 nM

[2H]C([2H])([2H])N1C(=O)c2cccc(OC(F)F)c2[C@H]2C[C@@H]1c1nc3ccc(-c4cnc5c(c4)COC[C@]5(O)CC)cc3n12 (single isomer, unassigned) [Example 41]
IC50: 10000 to 30000 nM

[2H]C([2H])([2H])N1C(=O)c2cccc(OC(F)F)c2[C@H]2C[C@@H]1c1nc3ccc(-c4cnc5c(c4)NC(=O)[C@]5(C)O)cc3n12 (single isomer, unassigned) [Example 42]
IC50: < 100 nM

[2H]C([2H])([2H])N1C(=O)c2cccc(OC(F)F)c2[C@H]2C[C@@H]1c1nc3ccc(-c4cnc5c(c4)NC(=O)[C@@]5(C)O)cc3n12 (single isomer, unassigned) [Example 43]
IC50: < 100 nM

[2H]C([2H])([2H])N1C(=O)c2cccc(OC(F)F)c2[C@H]2C[C@@H]1c1nc3ccc(-c4cnc5c(c4)OC[C@]5(C)O)cc3n12 (single isomer, unassigned) [Example 46]
IC50: < 100 nM

[2H]C([2H])([2H])N1C(=O)c2cccc(OC(F)F)c2[C@H]2C[C@@H]1c1nc3ccc(-c4cnc5c(c4)OC[C@@]5(C)O)cc3n12 (single isomer, unassigned) [Example 47]
IC50: < 100 nM

[2H]C([2H])([2H])N1C(=O)c2cccc(OC(F)F)c2[C@H]2C[C@@H]1c1nc3ccc(-c4cnc5c(c4)CC[C@@]5(C)O)c(F)c3n12 (single isomer, unassigned) [Example 49]
IC50: 100 to 1000 nM

[2H]C([2H])([2H])N1C(=O)c2cccc(OC(F)F)c2[C@H]2C[C@@H]1c1nc3ccc(-c4cnc5c(c4)CC[C@]5(C)O)c(F)c3n12 (single isomer, unassigned) [Example 50]
IC50: < 100 nM

[2H]C([2H])([2H])N1C(=O)c2cccc(OC(F)F)c2[C@H]2C[C@@H]1c1nc3ccc(-c4cnc5c(c4)OCC[C@@]5(C)O)c(F)c3n12 (single isomer, unassigned) [Example 51]
IC50: < 100 nM

[2H]C([2H])([2H])N1C(=O)c2cccc(OC(F)F)c2[C@H]2C[C@@H]1c1nc3ccc(-c4cnc5c(c4)OCC[C@]5(C)O)c(F)c3n12 (single isomer, unassigned) [Example 52]
IC50: < 100 nM

[2H]C([2H])([2H])N1C(=O)c2cccc(OC(F)F)c2[C@H]2C[C@@H]1c1nc3ccc(-c4cnc5c(c4)OC[C@@]5(C)O)c(F)c3n12 (single isomer, unassigned) [Example 53]
IC50: < 100 nM

[2H]C([2H])([2H])N1C(=O)c2cccc(OC(F)F)c2[C@H]2C[C@@H]1c1nc3ccc(-c4cnc5c(c4)OC[C@]5(C)O)c(F)c3n12 (single isomer, unassigned) [Example 54]
IC50: < 100 nM

[2H]C([2H])([2H])N1C(=O)c2cccc(OC(F)F)c2[C@H]2C[C@@H]1c1nc3ccc(-c4cnc5c(c4)OC[C@]5(C)N)cc3n12 (single isomer, unassigned) [Example 55]
IC50: < 100 nM

[2H]C([2H])([2H])N1C(=O)c2cccc(OC(F)F)c2[C@H]2C[C@@H]1c1nc3ccc(-c4cnc5c(c4)OC[C@@]5(C)N)cc3n12 (single isomer, unassigned) [Example 56]
IC50: < 100 nM

CN1C(=O)c2cccc(OC(F)F)c2[C@H]2C[C@@H]1c1nc3ccc(-c4cnc5c(c4)OC[C@]5(C)N)cc3n12 (single isomer, unassigned) [Example 57]
IC50: < 100 nM

CN1C(=O)c2cccc(OC(F)F)c2[C@H]2C[C@@H]1c1nc3ccc(-c4cnc5c(c4)OC[C@@]5(C)N)cc3n12 (single isomer, unassigned) [Example 58]
IC50: < 100 nM

[2H]C([2H])([2H])N1C(=O)c2cccc(OC(F)F)c2[C@H]2C[C@@H]1c1nc3ccc(-c4cnc5c(c4)OC[C@@]5(C)N)nc3n12 (single isomer, unassigned) [Example 59]
IC50: 10000 to 30000 nM

[2H]C([2H])([2H])N1C(=O)c2cccc(OC(F)F)c2[C@H]2C[C@@H]1c1nc3ccc(-c4cnc5c(c4)OC[C@]5(C)N)nc3n12 (single isomer, unassigned) [Example 60]
IC50: 100 to 1000 nM

[2H]C([2H])([2H])N1C(=O)c2cccc(OC(F)F)c2[C@H]2C[C@@H]1c1nc3cc(F)c(-c4cnc5c(c4)OC[C@@]5(C)N)cc3n12 (single isomer, unassigned) [Example 61]
IC50: < 100 nM

[2H]C([2H])([2H])N1C(=O)c2cccc(OC(F)F)c2[C@H]2C[C@@H]1c1nc3cc(F)c(-c4cnc5c(c4)OC[C@]5(C)N)cc3n12 (single isomer, unassigned) [Example 62]
IC50: < 100 nM

[2H]C([2H])([2H])N1C(=O)c2cccc(OC(F)F)c2[C@H]2C[C@@H]1c1nc3ccc(-c4cnc5c(c4)OC[C@@]5(C)O)nc3n12 (single isomer, unassigned) [Example 63]
IC50: 100 to 1000 nM

[2H]C([2H])([2H])N1C(=O)c2cccc(OC(F)F)c2[C@H]2C[C@@H]1c1nc3ccc(-c4cnc5c(c4)OC[C@]5(C)O)nc3n12 (single isomer, unassigned) [Example 64]
IC50: 100 to 1000 nM

[2H]C([2H])([2H])N1C(=O)c2cccc(OC(F)F)c2[C@H]2C[C@@H]1c1nc3ccc(-c4cnc5c(c4)OC[C@@]5(C)N)c(F)c3n12 (single isomer, unassigned) [Example 65]
IC50: < 100 nM

[2H]C([2H])([2H])N1C(=O)c2cccc(OC(F)F)c2[C@H]2C[C@@H]1c1nc3ccc(-c4cnc5c(c4)OC[C@]5(C)N)c(F)c3n12 (single isomer, unassigned) [Example 66]
IC50: < 100 nM
